Measured values as given in article PMC7645366 (EMBO Molecular Medicine, 2020).
“And” between values parts separate entries of the source, which are not always exact repeats. Equal values may be shown once. Read-outs that look alike come from different tables or passages of the source.

Tests used:
PLY [1] = target: T1, PLY (Streptococcus pneumoniae serotype 4, UniProt P0C2J9); format: cell-based
LLO [2] = target: T2, LLO (Listeria monocytogenes serovar 1/2a, UniProt P13128); test: LDH cytotoxicity assay, THP-1 macrophages, LLO; format: cell-based; conditions: THP-1, LLO 0.5 μg/ml, 100 μM, 18 h
Protocol: (§1) Human monocytic leukemia THP‐1 cells (ATCC TIB‐202) were cultivated in R10 medium and maintained at density of 10^6 cells/ml. For differentiation into macrophages, THP‐1 cells were treated for 48 h with 20 ng/ml of phorbol myristate acetate (Sigma).
Cytotoxicity was determined by measuring the activity of lactate dehydrogenase enzyme released into the culture supernatant using the Cytotoxicity Detection kit (Roche) according to the manufacturer's instructions. The percentage cytotoxicity was calculated by ratio to 100% lysis control (0.1% saponin).

PLY [3] = target: T1, PLY; format: cell-based; conditions: 100uM; 18 h
LLO [4] = target: T2, LLO; test: Cytokine ELISA, THP-1 macrophages stimulated with LLO; format: cell-based; conditions: LLO 0.5 μg/ml, 100uM, 18 h
Protocol: as §1

SLO = SLO (Streptococcus pyogenes serotype M1, UniProt P0C0I3); format: cell-based; conditions: 100uM; 18 h
PLY [5] = target: T1, PLY; conditions: 18 h

Sequence of SLO (P0C0I3 34-571 limits assumed): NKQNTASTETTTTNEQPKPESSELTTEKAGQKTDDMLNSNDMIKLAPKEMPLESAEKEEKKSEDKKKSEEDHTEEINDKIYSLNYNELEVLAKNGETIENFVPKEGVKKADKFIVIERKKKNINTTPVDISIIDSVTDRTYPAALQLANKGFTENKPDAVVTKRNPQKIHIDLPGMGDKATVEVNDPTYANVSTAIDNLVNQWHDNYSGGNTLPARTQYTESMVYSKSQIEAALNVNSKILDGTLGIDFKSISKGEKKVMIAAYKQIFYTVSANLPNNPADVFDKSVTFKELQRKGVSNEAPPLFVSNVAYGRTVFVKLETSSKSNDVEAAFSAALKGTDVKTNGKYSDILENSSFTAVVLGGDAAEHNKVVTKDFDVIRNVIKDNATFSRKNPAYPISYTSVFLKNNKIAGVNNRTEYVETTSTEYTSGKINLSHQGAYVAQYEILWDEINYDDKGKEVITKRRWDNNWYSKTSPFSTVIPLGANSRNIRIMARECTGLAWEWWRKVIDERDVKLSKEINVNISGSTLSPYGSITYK
T1 sequence (P0C2J9 whole entry, looked up): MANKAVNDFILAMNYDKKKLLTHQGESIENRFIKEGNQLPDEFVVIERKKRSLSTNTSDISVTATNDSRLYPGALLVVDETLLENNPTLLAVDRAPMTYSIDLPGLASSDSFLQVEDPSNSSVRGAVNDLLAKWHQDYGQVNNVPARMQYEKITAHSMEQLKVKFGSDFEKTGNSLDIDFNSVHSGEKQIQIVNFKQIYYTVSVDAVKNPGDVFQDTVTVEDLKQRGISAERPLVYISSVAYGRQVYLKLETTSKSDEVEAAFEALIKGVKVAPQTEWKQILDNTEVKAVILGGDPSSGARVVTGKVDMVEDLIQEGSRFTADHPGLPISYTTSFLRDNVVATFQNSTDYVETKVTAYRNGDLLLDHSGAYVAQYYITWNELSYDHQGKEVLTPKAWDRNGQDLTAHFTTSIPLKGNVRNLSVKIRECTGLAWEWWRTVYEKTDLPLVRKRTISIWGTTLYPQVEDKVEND
T2 sequence (P13128 25-529): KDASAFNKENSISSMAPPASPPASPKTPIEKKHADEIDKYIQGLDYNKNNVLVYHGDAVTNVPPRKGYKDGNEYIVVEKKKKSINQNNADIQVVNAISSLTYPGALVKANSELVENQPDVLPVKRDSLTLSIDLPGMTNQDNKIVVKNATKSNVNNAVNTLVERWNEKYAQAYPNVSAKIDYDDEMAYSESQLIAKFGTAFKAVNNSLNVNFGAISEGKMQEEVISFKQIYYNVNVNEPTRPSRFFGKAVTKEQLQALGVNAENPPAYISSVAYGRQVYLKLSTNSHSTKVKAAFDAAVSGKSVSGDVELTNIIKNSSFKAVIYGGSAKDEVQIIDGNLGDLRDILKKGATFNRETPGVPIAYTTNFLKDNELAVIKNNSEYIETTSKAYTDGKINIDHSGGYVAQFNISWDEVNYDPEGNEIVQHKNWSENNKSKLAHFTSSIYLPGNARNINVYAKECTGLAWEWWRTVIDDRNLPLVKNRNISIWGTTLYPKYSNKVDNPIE

Compound: Bovine serum albumin [BSA]
- cytolysis by PLY in live imaging (PLY [1]): cytolysis

Compound: CC(C)CCC[C@@H](C)[C@H]1CC[C@H]2[C@@H]3CC=C4C[C@@H](O)CC[C@]4(C)[C@H]3CC[C@]12C [CHO, Cholesterol, reference compound]
- % cytotoxicity relative to positive control (lysis buffer), LDH (LLO [2]; experiment 1 of 4): 42.88%
- % cytotoxicity relative to positive control (lysis buffer), LDH (LLO [2]; experiment 2 of 4): 43.52%
- % cytotoxicity relative to positive control (lysis buffer), LDH (LLO [2]; experiment 3 of 4): 31.62%
- % cytotoxicity relative to positive control (lysis buffer), LDH (LLO [2]; experiment 4 of 4): 53.89%
- cytolysis by PLY in live imaging (PLY [1]): protection from PLY induced cytolysis
- IL-8 levels in THP-1 macrophages (PLY [3]): 104 pg/mL and 72.9 pg/mL and 80.5 pg/mL
- IL-8 levels in THP-1 macrophages (LLO [4]; experiment 1 of 3): 112.8 pg/mL
- IL-8 levels in THP-1 macrophages (LLO [4]; experiment 2 of 3): 87.2 pg/mL
- IL-8 levels in THP-1 macrophages (LLO [4]; experiment 3 of 3): 126.9 pg/mL
- IL-8 levels in THP-1 macrophages (SLO): 79.6 pg/mL and 72.8 pg/mL and 144.9 pg/mL
- % cytotoxicity relative to positive control (lysis buffer), LDH (PLY [5]; 100 μM): 27.36% and 42.05% and 42.16%
- % cytotoxicity relative to positive control (lysis buffer), LDH (PLY [5]): 35.29%
